Assay results taken from EP0898962A1, “Transdermal patches and methods for inactivating skin proteases” (Becton, Dickinson and Company, priority 1997, dated 1999).

Assay: Incubation of peptide drugs on human skin
Format: in vitro ADME
Excerpt: Effects of proteases on in vivo or in vitro transdermal delivery has been reported for vasopressin and vasopressin analogues (Morimoto et al., Int. Journal Pharmaceutics 81: 119-125, 1992), des-enkephalon-γ-endorphin (Bodde et al., Biochem. Soc. Trans. 17: 943-945, 1989), leucine enkephalin (Choi at al., 1990), and salmon calcitonin (SCT) (Morimoto et al., J. Pharm. Pharmacol. 44; 216-218, 1992). This was concluded because addition of protease inhibitors appear to enhance delivery as determined by increased biological effect of the peptides. For example, camostat mesilate (a serine protease inhibitor) increased the hypocalcemic effect of iontophoretically-delivered SCT (Morimoto, J. Pharm. Pharmacol. 1992) and the antidiuretic effects of vasopressin delivered iontophoretically in rats (Morimoto, Int. Journal Pharmaceutics, 1992). We have observed that incubation of insulin analogues or SCT on human skin results in degradation, which supports the notion that proteolysis accounts for previously observed losses of these peptide drugs during iontophoretic delivery.

Substance: salmon calcitonin [SCT]
- result of incubation on human skin: degradation
